Assay results: PubChem BioAssay (NCI)
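Assay format: 96-well plates, 48-hour exposure. GI50 = concentration required for 50% inhibition of growth. TGI marks complete inhibition of growth.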

Columns and labels:
Assay in all cases: NCI anticancer screen, dose series, 48 h
786-0 renal = system: 786-0 renal
A498 renal = system: A498 renal
A549 NSCLC = system: A549 NSCLC
ACHN renal = system: ACHN renal
BT-549 breast = system: BT-549 breast
CAKI-1 renal = system: CAKI-1 renal
CCRF-CEM leukemia = system: CCRF-CEM leukemia
COLO 205 colon = system: COLO 205 colon
DU-145 prostate = system: DU-145 prostate
EKVX NSCLC = system: EKVX NSCLC
HCC-2998 colon = system: HCC-2998 colon
HCT-116 colon = system: HCT-116 colon
HCT-15 colon = system: HCT-15 colon
HL-60(TB) leukemia = system: HL-60(TB) leukemia
HOP-62 NSCLC = system: HOP-62 NSCLC
HOP-92 NSCLC = system: HOP-92 NSCLC
HS 578T breast = system: HS 578T breast
HT29 colon = system: HT29 colon
IGROV1 ovarian = system: IGROV1 ovarian
K-562 leukemia = system: K-562 leukemia
KM12 colon = system: KM12 colon
LOX IMVI melanoma = system: LOX IMVI melanoma
M14 melanoma = system: M14 melanoma
MALME-3M melanoma = system: MALME-3M melanoma
MCF7 breast = system: MCF7 breast
MDA-MB-231 breast = system: MDA-MB-231 breast
MDA-MB-435 = system: MDA-MB-435
MOLT-4 leukemia = system: MOLT-4 leukemia
NCI-H226 lung = system: NCI-H226 lung
NCI-H23 lung = system: NCI-H23 lung
NCI-H460 lung = system: NCI-H460 lung
NCI-H522 lung = system: NCI-H522 lung
NCI/ADR-RES ovarian = system: NCI/ADR-RES ovarian
OVCAR-3 ovarian = system: OVCAR-3 ovarian
OVCAR-4 ovarian = system: OVCAR-4 ovarian
OVCAR-5 ovarian = system: OVCAR-5 ovarian
OVCAR-8 ovarian = system: OVCAR-8 ovarian
PC-3 prostate = system: PC-3 prostate
RPMI-8226 leukemia = system: RPMI-8226 leukemia
RXF 393 renal = system: RXF 393 renal
SF-268 CNS = system: SF-268 CNS
SF-295 CNS = system: SF-295 CNS
SF-539 CNS = system: SF-539 CNS
SK-MEL-2 melanoma = system: SK-MEL-2 melanoma
SK-MEL-28 melanoma = system: SK-MEL-28 melanoma
SK-MEL-5 melanoma = system: SK-MEL-5 melanoma
SK-OV-3 ovarian = system: SK-OV-3 ovarian
SN12C renal = system: SN12C renal
SNB-19 CNS = system: SNB-19 CNS
SNB-75 CNS = system: SNB-75 CNS
SR leukemia = system: SR leukemia
SW-620 colon = system: SW-620 colon
T-47D breast = system: T-47D breast
TK-10 renal = system: TK-10 renal
U251 CNS = system: U251 CNS
UACC-257 melanoma = system: UACC-257 melanoma
UACC-62 melanoma = system: UACC-62 melanoma
UO-31 renal = system: UO-31 renal

`CCS(=O)(=O)c1ccc(OC)c(Nc2ncc(-c3cccc(OC)c3)o2)c1` was tested, and the GI50 (786-0 renal) was 9.57 µM, the TGI (786-0 renal) was > 25 µM and the GI50 (A498 renal) was 0.728 µM. For the same molecule, the TGI (A498 renal) was 4.28 µM, the GI50 (A549 NSCLC) was 8.75 µM and the TGI (A549 NSCLC) was > 25 µM. For the same molecule, the GI50 (ACHN renal) was 6.61 µM, the TGI (ACHN renal) was > 25 µM and the GI50 (BT-549 breast) was 14.6 µM. For the same molecule, the TGI (BT-549 breast) was > 25 µM, the GI50 (CAKI-1 renal) was 8.58 µM and the TGI (CAKI-1 renal) was > 25 µM. The GI50 (CCRF-CEM leukemia) was 10.7 µM, the TGI (CCRF-CEM leukemia) was > 25 µM and the GI50 (COLO 205 colon) was 10.3 µM. For the same molecule, the TGI (COLO 205 colon) was > 25 µM, the GI50 (DU-145 prostate) was 9.99 µM and the TGI (DU-145 prostate) was > 25 µM. For the same molecule, the GI50 (EKVX NSCLC) was 18.9 µM, the TGI (EKVX NSCLC) was > 25 µM and the GI50 (HCC-2998 colon) was 23 µM. For the same molecule, the TGI (HCC-2998 colon) was > 25 µM, the GI50 (HCT-116 colon) was 8.1 µM and the TGI (HCT-116 colon) was > 25 µM. For the same molecule, the GI50 (HCT-15 colon) was 10.6 µM, the TGI (HCT-15 colon) was > 25 µM and the GI50 (HL-60(TB) leukemia) was 16.4 µM. The TGI (HL-60(TB) leukemia) was > 25 µM, the GI50 (HOP-62 NSCLC) was 9.41 µM and the TGI (HOP-62 NSCLC) was > 25 µM. It also gave a GI50 (HOP-92 NSCLC) of 2.76 µM, a TGI (HOP-92 NSCLC) of 9.17 µM and a GI50 (HS 578T breast) of 5.48 µM. For the same molecule, the TGI (HS 578T breast) was 17.6 µM, the GI50 (HT29 colon) was 10.8 µM and the TGI (HT29 colon) was > 25 µM. The GI50 (IGROV1 ovarian) was 6.8 µM, the TGI (IGROV1 ovarian) was > 20.7 µM and the GI50 (K-562 leukemia) was 4.34 µM. For the same molecule, the TGI (K-562 leukemia) was > 25 µM, the GI50 (KM12 colon) was 1.06 µM and the TGI (KM12 colon) was > 25 µM. The GI50 (LOX IMVI melanoma) was 6.12 µM, the TGI (LOX IMVI melanoma) was 24.8 µM and the GI50 (M14 melanoma) was 14.6 µM. For the same molecule, the TGI (M14 melanoma) was > 25 µM, the GI50 (MALME-3M melanoma) was > 25 µM and the TGI (MALME-3M melanoma) was > 25 µM. The GI50 (MCF7 breast) was > 18.3 µM, the TGI (MCF7 breast) was > 25 µM and the GI50 (MDA-MB-231 breast) was 8.54 µM. The TGI (MDA-MB-231 breast) was > 25 µM, the GI50 (MDA-MB-435) was 18.2 µM and the TGI (MDA-MB-435) was > 25 µM. For the same molecule, the GI50 (MOLT-4 leukemia) was 13.5 µM, the TGI (MOLT-4 leukemia) was > 25 µM and the GI50 (NCI-H226 lung) was 4.65 µM. The TGI (NCI-H226 lung) was > 23.6 µM, the GI50 (NCI-H23 lung) was 8.3 µM and the TGI (NCI-H23 lung) was > 25 µM. The GI50 (NCI-H460 lung) was 11.9 µM, the TGI (NCI-H460 lung) was > 25 µM and the GI50 (NCI-H522 lung) was 8.58 µM. The TGI (NCI-H522 lung) was 22.5 µM, the GI50 (NCI/ADR-RES ovarian) was 9.38 µM and the TGI (NCI/ADR-RES ovarian) was > 25 µM. The GI50 (OVCAR-3 ovarian) was 9.92 µM, the TGI (OVCAR-3 ovarian) was > 25 µM and the GI50 (OVCAR-4 ovarian) was 13.5 µM. For the same molecule, the TGI (OVCAR-4 ovarian) was > 25 µM, the GI50 (OVCAR-5 ovarian) was 9.03 µM and the TGI (OVCAR-5 ovarian) was > 25 µM. For the same molecule, the GI50 (OVCAR-8 ovarian) was 9.66 µM, the TGI (OVCAR-8 ovarian) was > 25 µM and the GI50 (PC-3 prostate) was 8.61 µM. For the same molecule, the TGI (PC-3 prostate) was > 25 µM, the GI50 (RPMI-8226 leukemia) was > 16.5 µM and the TGI (RPMI-8226 leukemia) was > 25 µM. It also gave a GI50 (RXF 393 renal) of 5.83 µM, a TGI (RXF 393 renal) of 19.7 µM and a GI50 (SF-268 CNS) of 8.84 µM. For the same molecule, the TGI (SF-268 CNS) was > 25 µM, the GI50 (SF-295 CNS) was 9.72 µM and the TGI (SF-295 CNS) was > 25 µM. For the same molecule, the GI50 (SF-539 CNS) was 6.96 µM, the TGI (SF-539 CNS) was > 25 µM and the GI50 (SK-MEL-2 melanoma) was 13.2 µM. The TGI (SK-MEL-2 melanoma) was > 25 µM, the GI50 (SK-MEL-28 melanoma) was > 20.6 µM and the TGI (SK-MEL-28 melanoma) was > 25 µM. For the same molecule, the GI50 (SK-MEL-5 melanoma) was 10 µM, the TGI (SK-MEL-5 melanoma) was > 25 µM and the GI50 (SK-OV-3 ovarian) was 9.92 µM. For the same molecule, the TGI (SK-OV-3 ovarian) was > 25 µM, the GI50 (SN12C renal) was 8.3 µM and the TGI (SN12C renal) was > 25 µM. The GI50 (SNB-19 CNS) was 12 µM, the TGI (SNB-19 CNS) was > 25 µM and the GI50 (SNB-75 CNS) was 6.26 µM. The TGI (SNB-75 CNS) was > 18.2 µM, the GI50 (SR leukemia) was 9.33 µM and the TGI (SR leukemia) was 24.3 µM. For the same molecule, the GI50 (SW-620 colon) was 9.09 µM, the TGI (SW-620 colon) was > 25 µM and the GI50 (T-47D breast) was 8.18 µM. The TGI (T-47D breast) was > 25 µM, the GI50 (TK-10 renal) was 6.5 µM and the TGI (TK-10 renal) was 18.6 µM. For the same molecule, the GI50 (U251 CNS) was 8.09 µM, the TGI (U251 CNS) was > 25 µM and the GI50 (UACC-257 melanoma) was > 22.2 µM. The TGI (UACC-257 melanoma) was > 25 µM, the GI50 (UACC-62 melanoma) was 9.52 µM and the TGI (UACC-62 melanoma) was > 25 µM. For the same molecule, the GI50 (UO-31 renal) was 3.4 µM and the TGI (UO-31 renal) was 13.8 µM.
